Assay results: patent publication US20260166159A1, “KRAS G12D DEGRADATION AGENT, AND PREPARATION METHOD AND USE THEREFOR” (LEADINGTAC PHARMACEUTICAL (SHAOXING) CO., LTD., priority 2022, published 2026)

Legend:
[1] = biological target: T1, Human KRAS G12D 6His-tagged (Homo sapiens, UniProt P01116, G12D); test: KRAS-G12D/GTP binding assay (HTRF); settings: numeric values
T1 construct: purchased PerkinElmer
Protocol: In this method, the inhibitory effects of the compounds on the binding of KRAS-G12D to GTP were assayed by a homogeneous time-resolved fluorescence (HTRF) technique using a KRAS-G12D/GTP binding assay kit (PerkinElmer).
The experimental procedures were as follows (refer to the kit instructions for detailed test methods): the compounds of the present disclosure were each firstly dissolved in DMSO at a concentration of 20 mM, and then diluted in an equal gradient with a buffer in the kit, so that the final concentrations of the test compounds in the reaction system were in a range of 0.02-5000 nM, and the final concentration of DMSO was 0.5%. 5 μL of each compound was incubated with 5 μL of 1× Human KRAS G12D 6His-tagged (PerkinElmer), 5 μL of 1×6His Eu Cryptate Antibody (PerkinElmer), and 5 μL of 1×GTP Red reagent (PerkinElmer) in a 384-well plate (Greiner) at 25° C. for 1 h. After the incubation was completed, the fluorescence intensity of each well was measured at the excitation wavelength of 337 nm and the emission wavelengths of 620 nm and 665 nm with an EnVision microplate reader (PerkinElmer) in the HTRF mode, and Ratio values were calculated using the formula: Ratio=(665 nm/620 nm)×[…]. The inhibition rates of the compounds at each concentration were calculated by comparing the fluorescence intensity ratio with that of the control group. Then non-linear curve fittings for logarithmic concentration-inhibition rate were performed using the GraphPad Prism 8 analysis software, and the IC50 values of the compounds were obtained (Table 2).

KRAS-G12D = biological target: T2, KRAS-G12D (Homo sapiens, UniProt P01116, G12D); test: KRAS-G12D degradation assay (Western Blot), A-427 cells; type: cell-based; settings: A427 cells, 24 h; for Dmax: A-427
T2 construct: endogenous in cells; host or cells: A-427 (ATCC), AGS, AsPc-1, Panc 04.03
T2 sequence (P01116 1-188 isoform P01116-2 G12D): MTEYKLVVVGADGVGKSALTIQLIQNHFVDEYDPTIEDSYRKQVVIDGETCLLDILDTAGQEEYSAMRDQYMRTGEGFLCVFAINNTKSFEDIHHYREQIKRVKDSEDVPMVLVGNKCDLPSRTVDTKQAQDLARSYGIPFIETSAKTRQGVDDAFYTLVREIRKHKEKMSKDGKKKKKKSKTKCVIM
Protocol: The degradation effects of the compounds on KRAS-G12D were investigated on KRAS G12D mutant human lung cancer cell A-427 (ATCC), KRAS G12D mutant human gastric cancer cell AGS, KRAS G12D mutant human metastatic pancreatic cancer cell AsPc-1, and KRAS G12D mutant human pancreatic adenocarcinoma cell Panc 04.03. The specific procedures were as follows: 0.95 mL of cells were seeded into each well of a 24-well cell culture plate to achieve a cell density of 5×10^5 cells/well; and the cell plate was incubated in an incubator at 37° C. with 5% CO2 overnight. Then 50 μL of the compound solution after dilution was added to each of the wells with the corresponding cells, so that the final concentration of the compound was in a range of 0.03-3000 nM. The final concentration of DMSO was 0.25%. After the compounds were added, the cell plate was incubated in the incubator at 37° C. with 5% CO2 for 24 h. The culture medium in the 24-well cell culture plate was removed, and the plate was washed twice with 1×PBS (KeyGEN). 120 μL of RIPA (strong) lysis buffer (Beyotime) supplemented with 1 mM phenylmethylsulfonyl fluoride, a protease inhibitor mixture (Beyotime), and a protease phosphatase inhibitor mixture (Beyotime) was added to lyse adherent A-427 cells at the bottom of the cell culture plate. After the plate was left to stand on ice for 30 min, the protein lysate in each well was transferred to a 1.5 mL centrifuge tube and centrifuged at 15000 g for 20 min at 4° C. The cell lysate supernatants after centrifugation were cryopreserved in a refrigerator at −80° C. for later use.
After the samples of the cell lysate supernatants that had been prepared were thawed from the refrigerator at −80° C., the total protein concentrations of the cell lysates were determined using a BCA protein quantification kit (Tiangen). The total protein concentrations of the samples were then adjusted to 0.5 μg/μL with PBS and 5×SDS-PAGE protein loading buffer (Beyotime), and the samples were incubated in a water bath at 100° C. for 15 min. The samples were then incubated in an ice bath for 5 min and centrifuged at 14000 g for 1 min at 4° C., and the supernatants were mixed well as loading samples for the Western Blot assay. The samples were loaded into wells of a 10% precast gel (KeyGEN) with a loading volume of 10 μL (total protein: 5 μg), a sufficient Tris-MOPS-SDS running buffer (Adamas) was added, and then electrophoresis was performed at a constant voltage of 120 V for 55 min. After the electrophoresis, the proteins on the gel were transferred to PVDF membranes at a constant current of 250 mA for 55 min. After the membrane transfer, the PVDF membranes were incubated in 1× Quick Block blocking buffer (Beyotime) at room temperature for 30 min. After the blocking, the PVDF membranes were separately incubated at 4° C. overnight with the KRAS antibody (Abcam) diluted in a ratio of 1:1000 and the […] antibody (Abcam) diluted in a ratio of 1:2000 in 5% BSA as the diluent, and then washed with 1×TBST buffer (2.4 g of Tris, 8.8 g of NaCl, 1.5 mL of Tween 20, with pH adjusted to 7.4, with the volume brought to 1 L) 3 times for 10 min/time. The membranes were incubated with a secondary antibody (Abcam) diluted in 5% BSA at room temperature for 2 h, and then washed with 1×TBST buffer 3 times for 10 min/time. Finally, the membranes were incubated with Clarity Western ECL Substrate (BIO-RAD) for 5 min for luminescence and color development, and a ChemiScope 6200 Touch chemiluminescence imaging system (Clinx) was used for color development and protein mapping. Gray value analysis of the protein maps was performed using the chemiluminescence analysis software (Clinx). The gray correction value for each sample was calculated using the formula: gray correction value=(gray value of target protein/gray value of corresponding internal reference)×10^3. Then degradation rates were calculated by comparison with the gray correction value of the control group. […]

[2] = tested on: KRAS G12D mutant human lung cancer cell A427; test: 3D cell proliferation inhibition assay, A427; type: cell-based; settings: A-427, 168 h, A427, 7 days, CTG
From the text: (§1) The inhibitory effects of the compounds on 3D cell proliferation were investigated on KRAS G12D mutant human lung cancer cell A427, KRAS G12D mutant human gastric cancer cell AGS, KRAS G12D mutant human metastatic pancreatic cancer cell AsPc-1, KRAS G12D mutant human pancreatic cancer cell Panc 04.03, KRAS G12D mutant human pancreatic cancer cell HPAC, KRAS G12V mutant human lung squamous cell carcinoma cell SW900, and KRAS WT human gastric cancer cell MKN1. The specific procedures were as follows:
(§2) 10 μL of each compound solution diluted in a gradient was added to corresponding wells of a 96-well low-adsorption microplate (PerkinElmer), so that the final concentrations of the test compounds in the reaction system were in a range of 10000-0.026 nM. The final concentration of DMSO was 0.2%. Then 90 µL of cells were correspondingly seeded into each well to achieve a cell density of 5×10^2 cells/well (the cell density of SW900 was 5×10^1 cells/well, and the cell density of MKN1 was 1×10^3 cells/well). In addition to test wells for the test compounds, both a DMSO control well and a medium control well were set, with the DMSO control well containing DMSO and cells and the medium well containing only a medium. After the sample loading, the 96-well low-adsorption microplate was incubated in an incubator at 37° C. with 5% carbon dioxide for 7 days. After 7 days, the microplate was taken out, and 100 μL of CTG reagent (Promega) was added to each well. The plate was incubated at room temperature for 60 min and read on a microplate reader EnVision by the chemiluminescence program. The inhibition rates of the compounds at each concentration were calculated using the formula for the percentage inhibition of cell proliferation: inhibition rate %=(mean value of DMSO control group−single concentration reading value of compound)/(mean value of DMSO control group−mean value of medium control group)×100. Then non-linear curve fittings for logarithmic concentration-inhibition rate were performed by GraphPad Prism 8, and the IC50 values of the compounds were obtained (Table 5).

[3] = tested on: KRAS G12D mutant human gastric cancer cell AGS; test: 3D cell proliferation inhibition assay, AGS; type: cell-based; settings: 168 h, 7 days, CTG
From the text: as §1, §2

T1 sequence (P01116 1-188 isoform P01116-2 G12D): as above

IC50 [1] | Compound | DC50 (KRAS-G12D; numeric values) | Dmax (KRAS-G12D; numeric values) | IC50 ([2]; numeric values) | IC50 ([3]; numeric values) | DC50 (KRAS-G12D; class symbols) | Dmax (KRAS-G12D; class symbols) | IC50 ([2]; class symbols) | IC50 ([3]; class symbols)
1.15 nM | C#Cc1c(F)ccc2cc(O)cc(-c3ncc4c(N5CC6CCC(C5)N6)nc(OCC5(CN6CCC(O)(COCCC7CCN(C(=O)c8ccc(Cl)c(N9CCC(=O)NC9=O)c8)CC7)CC6)CC5)nc4c3F)c12 [Example 63] |  |  |  |  |  |  |  | 
 | CCc1cccc2cc(O)cc(-c3ccc4c(N5CC6CCC(C5)N6)nc(OCC5(CN6CCN(CC7CCC8(CC7)CCN(C(=O)c7ccc(Cl)c(N9CCC(=O)NC9=O)c7)CC8)CC6)CC5)nc4c3F)c12 [Example 62, 1-(5-(9-((4-((1-(((4-(3,8-diazabicyclo[3.2.1]octan-3-yl)-7-(8-ethyl-3-hydroxynaphthalen-1-yl)-8-fluoroquinazolin-2-yl)oxy)methyl)cyclopropyl)methyl)piperazin-1-yl)methyl)-3-azaspiro[5.5]undecane-3-carbonyl)-2-chlorophenyl)dihydropyrimidine-2,4(1H,3H)-dione] | 15.8 nM | 94.8% | 13.1 nM | 4.98 nM |  |  |  | 
 | C#Cc1c(F)ccc2cc(O)cc(-c3ncc4c(N5CC6CCC(C5)N6)nc(OCC5(CN6CCN(CC7CCC8(CC7)CCN(C(=O)c7ccc(OC(F)(F)F)c(N9CCC(=O)NC9=O)c7)CC8)CC6)CC5)nc4c3F)c12 [Example 39, 1-(5-(9-((4-((1-(((4-(3,8-diazabicyclo[3.2.1]octan-3-yl)-7-(8-ethynyl-7-fluoro-3-hydroxynaphthalen-1-yl)-8-fluoropyrido[4,3-d]pyrimidin-2-yl)oxy)methyl)cyclopropyl)methyl)piperazin-1-yl)methyl)-3-azaspiro[5.5]undecane-3-carbonyl)-2-(trifluoromethoxy)phenyl)dihydropyrimidine-2,4(1H,3H)-dione] |  |  |  |  | ≤ 50 nM | 50 to 80% | 100 to 500 nM | ≤ 50 nM
 | CCc1c(F)ccc2cc(O)cc(-c3ccc4c(N5CC6CCC(C5)N6)nc(OCC5(CN6CCN(CC7CCC8(CC7)CCN(C(=O)c7ccc(Cl)c(N9CCC(=O)NC9=O)c7)CC8)CC6)CC5)nc4c3F)c12 [Example 74, 1-(5-(9-((4-((1-(((4-(3,8-diazabicyclo[3.2.1]octan-3-yl)-7-(8-ethyl-7-fluoro-3-hydroxynaphthalen-1-yl)-8-fluoroquinazolin-2-yl)oxy)methyl)cyclopropyl)methyl)piperazin-1-yl)methyl)-3-azaspiro[5.5]undecane-3-carbonyl)-2-chlorophenyl)dihydropyrimidine-2,4(1H,3H)-dione] | 38.1 nM | 77% | 31.6 nM | 15.7 nM |  |  |  | 
 | C#Cc1cccc2cc(O)cc(-c3ccc4c(N5CC6CCC(C5)N6)nc(OCC5(CN6CCN(CC7CCC8(CC7)CCN(C(=O)c7ccc(OC)c(N9CCC(=O)NC9=O)c7)CC8)CC6)CC5)nc4c3F)c12 [Example 76, 1-(5-(9-((4-((1-(((4-(3,8-diazabicyclo[3.2.1]octan-3-yl)-7-(8-ethynyl-3-hydroxynaphthalen-1-yl)-8-fluoroquinazolin-2-yl)oxy)methyl)cyclopropyl)methyl)piperazin-1-yl)methyl)-3-azaspiro[5.5]undecane-3-carbonyl)-2-methoxyphenyl)dihydropyrimidine-2,4(1H,3H)-dione] | 1.74 nM | 89.3% | 74.8 nM | 9.53 nM |  |  |  | 
 | CCc1c(F)ccc2cc(O)cc(-c3ncc4c(N5CC6CCC(C5)N6)nc(OCC5(CN6CCN(CC7CCC8(CC7)CCN(C(=O)c7ccc(C)c(N9CCC(=O)NC9=O)c7)CC8)CC6)CC5)nc4c3F)c12 [Example 37, 1-(5-(9-((4-((1-(((4-(3,8-diazabicyclo[3.2.1]octan-3-yl)-7-(8-ethyl-7-fluoro-3-hydroxynaphthalen-1-yl)-8-fluoropyrido[4,3-d]pyrimidin-2-yl)oxy)methyl)cyclopropyl)methyl)piperazin-1-yl)methyl)-3-azaspiro[5.5]undecane-3-carbonyl)-2-methylphenyl)dihydropyrimidine-2,4(1H,3H)-dione] |  |  |  |  | ≤ 50 nM | 80 to 100% | 100 to 500 nM | ≤ 50 nM
 | C#Cc1c(F)ccc2cc(O)cc(-c3ncc4c(N5CC6CCC(C5)N6)nc(OCC5(CN6CCN(CC7CCC8(CC7)CCN(C(=O)c7ccc(F)c(N9CCC(=O)NC9=O)c7)CC8)CC6)CC5)nc4c3F)c12 [Example 48, 1-(5-(9-((4-((1-(((4-(3,8-diazabicyclo[3.2.1]octan-3-yl)-7-(8-ethynyl-7-fluoro-3-hydroxynaphthalen-1-yl)-8-fluoropyrido[4,3-d]pyrimidin-2-yl)oxy)methyl)cyclopropyl)methyl)piperazin-1-yl)methyl)-3-azaspiro[5.5]undecane-3-carbonyl)-2-fluorophenyl)dihydropyrimidine-2,4(1H,3H)-dione] |  |  |  |  | ≤ 50 nM | 80 to 100% | ≤ 50 nM | ≤ 50 nM
